Assay results: a melting point compilation (Tetko et al.)

Structure (SMILES): CC(O)C(O)C(O)C(O)C=O (centres undefined)
- melting point: 122 °C

Structure (SMILES): O=C(Nc1nc(-c2ccc(Cl)cc2)cs1)c1ccccc1
- melting point: 120 °C

Structure (SMILES): O=C1C=CC(=O)c2c(Cl)cccc21
- melting point: 163 °C

Structure (SMILES): NC(=S)c1ccc2c(c1)OCO2
- melting point: 183 to 186 °C

Structure (SMILES): Nc1c(C=NNc2ccccc2)ccc2c1C(=O)c1ccccc1C2=O
- melting point: 209 to 211 °C

Structure (SMILES): O=C(Nc1ccc(C#Cc2ccc(NC(=O)c3ccccc3)cc2)cc1)c1ccccc1
- melting point: 332 °C

Structure (SMILES): CC(C)NCC(O)COc1cccc2ccccc12 (centres undefined)
- melting point: 162 °C

Structure (SMILES): CC(=O)OCCc1ccc(CCOC(C)=O)cc1
- melting point: 65 °C

Structure (SMILES): [N-]=[N+]=NC(=O)C=Cc1ccc(C=CC(=O)N=[N+]=[N-])cc1
- melting point: 80 °C

Structure (SMILES): Nc1ccc(S(=O)(=O)c2ccc(NCC(=O)O)cc2)cc1
- melting point: 194 °C

Structure (SMILES): Oc1ccc(F)nc1
- melting point: 152 °C

Structure (SMILES): OC(c1ccc(F)cc1)(c1ccc(F)cc1)c1ccc(F)cc1
- melting point: 92 °C

Structure (SMILES): CC(=O)N[C@@H](Cc1ccccc1)C(=O)N[C@@H](Cc1cc(I)c(O)c(I)c1)C(=O)O
- melting point: 219 to 221 °C

Structure (SMILES): c1ccc(/N=N/c2ccc(-c3ccc(NNc4ccccc4)cc3)cc2)cc1
- melting point: 172 to 173 °C

Structure (SMILES): COc1ccc(/C=C2\CN(S(=O)(=O)c3ccc(C)cc3)c3ccccc3N2S(=O)(=O)c2ccc(C)cc2)cc1
- melting point: 152 °C

Structure (SMILES): Cc1ccc(C(=O)[C@@H]2CCCC[C@H]2C(=O)O)cc1 (relative stereo)
- melting point: 168 to 171 °C

Structure (SMILES): CCOc1nc2ccccc2c(=O)n1CCO
- melting point: 81 to 82 °C

Structure (SMILES): COc1cc(C(=O)c2ccc(Cl)cc2Cl)c([N+](=O)[O-])cc1OC
- melting point: 114 °C

Structure (SMILES): O=C1C(Cl)=C(Cl)C(=O)C(NCc2ccccc2)=C1Cl
- melting point: 231 °C

Structure (SMILES): C=C1C(C)C2C(Cc3ccccc3)NC(=O)C23OC(=O)C=CC(O)CCCC(C)CC=CC3C1O (centres undefined)
- melting point: 218 to 223 °C

Structure (SMILES): CCOC(=O)C(C#N)=NNc1ccc(Cl)cc1
- melting point: 161 to 162 °C

Structure (SMILES): COC(=O)C1=C(C)NC(C)=C(C(=O)OC)C1c1cccc(OC)c1O
- melting point: 191 °C

Structure (SMILES): CCS(=O)(=O)Oc1ccc2c(c1)C(C)(C)CO2
- melting point: 30 °C

Structure (SMILES): Cc1cc(=O)oc2cc(OC3OC(CO)C(O)C(O)C3O)ccc12 (centres undefined)
- melting point: 248 °C

Structure (SMILES): CC1=CC(=O)CC1
- melting point: 3 to 5 °C

Structure (SMILES): CC(C)(C)c1cc(C#N)cc(C(C)(C)C)c1O
- melting point: 144 to 146 °C

Structure (SMILES): CCOc1ccc([N+](=O)[O-])cc1N
- melting point: 96.5 °C

Structure (SMILES): CCOC(=O)Cn1c(Br)nc(Cl)c1Cl
- melting point: 42 to 45 °C

Structure (SMILES): O=P1(N(CCCl)CCCl)NCCCO1 (centres undefined)
- melting point: 51.5 °C

Structure (SMILES): Nc1nc2ccc(OC(F)(F)F)cc2s1
- melting point: 119 °C

Structure (SMILES): CCOC(=O)C1=C(N)Oc2ccc3ccccc3c2[C@H]1c1ccc(C)cc1
- melting point: 201 °C

Structure (SMILES): O=C1c2ccc(C=NO)cc2C(=O)c2c(Cl)c(Cl)c(Cl)c(Cl)c21
- melting point: 234 to 235 °C

Structure (SMILES): NNC(=S)NC1CCCCC1
- melting point: 142 to 145 °C

Structure (SMILES): CCC(C)Cn1c(O)nnc1S (centres undefined)
- melting point: 147 to 151 °C

Structure (SMILES): Nc1c(Br)cc(Br)c(Cl)c1Cl
- melting point: 98 °C

Structure (SMILES): Nc1ncc(Cl)cn1
- melting point: 235 °C

Structure (SMILES): CC1(C)OC(=O)C(=C2CCCCCN2)C(=O)O1
- melting point: 147 to 149 °C

Structure (SMILES): C=CCOCC(CC)(CO)CO
- melting point: -10 °C

Structure (SMILES): COc1ccc(C(=O)O)cc1C
- melting point: 195 to 197 °C

Structure (SMILES): CC(=O)c1ccc(C)nc1
- melting point: 17.6 °C

Structure (SMILES): C[Si](C)(C)N=C=S
- melting point: -32.8 °C

Structure (SMILES): N#Cc1ccccc1OC1CCOCC1
- melting point: 51 to 55 °C

Structure (SMILES): COC(=O)C=Cc1ccc([N+](=O)[O-])c(C=CC(=O)OC)c1
- melting point: 200 °C

Structure (SMILES): COC(=O)c1c(P(c2ccccc2)c2ccccc2)ccc2ccccc12
- melting point: 108 °C

Structure (SMILES): CCOC(=O)c1c[nH]nc1C(F)(F)F
- melting point: 145 to 148 °C

Structure (SMILES): OCc1cccc(OCc2ccccc2)c1
- melting point: 49 °C

Structure (SMILES): Cc1cc(C(C)(C)C)cc(C)c1I
- melting point: 56 °C

Structure (SMILES): O=Cc1nc(-c2ccccc2Cl)c2cc(Cl)ccc2n1
- melting point: 159 to 160 °C

Structure (SMILES): Oc1cccc(F)c1F
- melting point: 36 °C

Structure (SMILES): CCOC(=O)NCc1ccccc1
- melting point: 49 °C

Structure (SMILES): O=C(O)c1ccc(-n2cncn2)cc1
- melting point: 318 to 320 °C

Structure (SMILES): Cc1onc(-c2ccccc2)c1CN
- melting point: 66 to 68 °C

Structure (SMILES): CCOc1ccccc1[N+](=O)[O-]
- melting point: 2.2 °C

Structure (SMILES): COC1=CC(=O)NC1
- melting point: 132 °C

Structure (SMILES): CCOC(=O)C(=CNc1cc(C)nn1C)C(=O)OCC
- melting point: 85 to 88 °C

Structure (SMILES): Cc1c(-c2ccccc2)n(C)c2ccccc12
- melting point: 69 °C

Structure (SMILES): C=C1CC2CC(OC(=O)c3ccccc3)CCC2(C)C2CCC3(C)C(OC(=O)c4ccccc4)CCC3C12 (centres undefined)
- melting point: 192 °C

Structure (SMILES): CC12C=CC=CC1NC(=C1C(=O)c3ccccc3C1=O)C=C2 (centres undefined)
- melting point: 203 °C

Structure (SMILES): C[Si](C)(C)C#CC#C[Si](C)(C)C
- melting point: 112 °C

Structure (SMILES): CCCC(=O)c1ccc(O)cc1
- melting point: 91 °C

Structure (SMILES): Oc1cc(F)cc(F)c1
- melting point: 53 °C

Structure (SMILES): OC1(c2ccc(Br)cc2)CCNCC1
- melting point: 163 to 168 °C

Structure (SMILES): CC1=NN(c2ccccc2)C(=O)/C1=N\Nc1cccc(C(F)(F)F)c1
- melting point: 171 °C

Structure (SMILES): COS(=O)(=O)c1ccc(C)cc1
- melting point: 28.5 °C
